This note sets out measurements from PMC3810934 (Emerging Infectious Diseases, 2013).

Test [1] addresses T1, Oseltamivir-resistant A/Bethesda/956/2006 neuraminidase (K at 292) (Influenza A virus (H3N2), UniProt F1KL32, R292K). In kind it is biochemical. The conditions noted are these: pH 5.1.
In test [2] the target is T2, Oseltamivir-resistant A/Texas/23/2012 neuraminidase (H275Y) (Influenza A virus (H1N1pdm09), UniProt R4SI91, H275Y). In kind it is biochemical, Pandemic influenza A(H1N1) 2009 virus. As to conditions: pH 5.1.
Test [3] deals with T1, Oseltamivir-resistant A/Bethesda/956/2006 neuraminidase (K at 292). In kind it is biochemical. As to conditions: pH 6.5.
The target in test [4] is T2, Oseltamivir-resistant A/Texas/23/2012 neuraminidase (H275Y). In kind it is biochemical, Pandemic influenza A(H1N1) 2009 virus. As to conditions: pH 6.5.

Where two headings read alike, the source gives them in different places.

The IC50 is the midpoint of a concentration-inhibition curve. On to `CCC(CC)[C@H](NC(C)=O)[C@@H]1[C@H](O)[C@@H](C(=O)O)C[C@H]1N=C(N)N` [Peramivir, peramivir], for which the “Fold change in IC50 compared with drug-sensitive subtype-specific control” value was 8.58 (86) fold in test [1], 30.17 (431) fold in test [2], 16.27 (203) -fold in test [3] and 15.81 (264) -fold in test [4]. Also, the IC50 in test [1] came to 8.58 nM; in test [2], 30.2 nM; in test [3], 16.3 nM; in test [4] it was 15.8 nM.
